Laboratory results: the NIST ThermoML archive (doi:10.1016/j.jct.2013.05.011)
Numbers after ± are expanded uncertainties.

Experiments:
[1] = activity coefficient (dimensionless); of the first substance listed, at infinite dilution; xn = mol fraction of the nth substance listed; conditions: 101 kPa, Liquid, Chromatography, x1 = 0
[2] = refractive index (Na D-line) (dimensionless); conditions: 293.15 K; 101.33 kPa; Liquid; Standard Abbe refractometry
[3] = 288.15 K; 101.33 kPa; Liquid; Vibrating tube method

| refractive index [2] | mass density [3] [kg/m3] | Compound | activity coefficient ([1]; 333.2 K) | activity coefficient ([1]; 348.2 K) | activity coefficient ([1]; 363.2 K) |
| --- | --- | --- | --- | --- | --- |
|  |  | CCc1ccccc1 [ethylbenzene] + OCCOCCO | 16.8 ± 1.1 | 16.1 ± 1.1 | 15.2 ± 1 |
|  |  | CCc1ccccc1 [ethylbenzene] + OCCOCCOCCO | 8.63 ± 0.59 | 8.21 ± 0.56 | 7.86 ± 0.54 |
|  |  | CCCCCCC [heptane] + OCCOCCO | 131 ± 9 | 122 ± 8.4 | 95.4 ± 6.5 |
|  |  | CCCCCCC [heptane] + OCCOCCOCCO | 62.3 ± 4.3 | 52.3 ± 3.6 | 43.7 ± 3 |
|  |  | C=CCCCC [hex-1-ene] + OCCOCCO | 50.7 ± 3.5 | 47.3 ± 3.2 | 38.9 ± 2.7 |
|  |  | C=CCCCC [hex-1-ene] + OCCOCCOCCO | 24.6 ± 1.7 | 22.7 ± 1.6 | 20.4 ± 1.4 |
|  |  | CCCCCC [hexane] + OCCOCCO | 95.7 ± 6.6 | 84 ± 5.8 | 82.4 ± 5.6 |
|  |  | CCCCCC [hexane] + OCCOCCOCCO | 45.8 ± 3.1 | 40.3 ± 2.8 | 35.1 ± 2.4 |
|  |  | CO [methanol] + OCCOCCO | 0.988 ± 0.062 | 1.01 ± 0.06 | 1.02 ± 0.06 |
|  |  | CO [methanol] + OCCOCCOCCO | 0.788 ± 0.051 | 0.787 ± 0.051 |  |
|  |  | CCCCCCCCC [nonane] + OCCOCCO | 264 ± 18 | 230 ± 16 | 193 ± 13 |
|  |  | CCCCCCCCC [nonane] + OCCOCCOCCO | 137 ± 9.4 | 98.9 ± 6.8 | 83.1 ± 5.7 |
|  |  | C=CCCCCCC [oct-1-ene] + OCCOCCO | 101 ± 6.9 | 93.5 ± 6.4 | 82.6 ± 5.7 |
|  |  | C=CCCCCCC [oct-1-ene] + OCCOCCOCCO | 55.9 ± 3.8 | 41.8 ± 2.9 | 36.8 ± 2.5 |
|  |  | CCCCCCCC [octane] + OCCOCCO | 188 ± 13 | 168 ± 12 | 146 ± 10 |
|  |  | CCCCCCCC [octane] + OCCOCCOCCO | 103 ± 7.1 | 74 ± 5.1 | 62.9 ± 4.3 |
|  |  | CCCCC [pentane] + OCCOCCO | 70.2 ± 8.7 | 53.8 ± 6.7 | 54.2 ± 6.7 |
|  |  | CCCCC [pentane] + OCCOCCOCCO | 33.7 ± 4.2 | 30.8 ± 3.8 | 23.2 ± 2.9 |
|  |  | CCCO [propan-1-ol] + OCCOCCO | 1.8 ± 0.12 | 1.77 ± 0.12 | 1.74 ± 0.12 |
|  |  | CCCO [propan-1-ol] + OCCOCCOCCO | 1.38 ± 0.09 | 1.34 ± 0.09 | 1.31 ± 0.09 |
|  |  | CC(C)O [propan-2-ol] + OCCOCCO | 1.79 ± 0.12 | 1.77 ± 0.12 | 1.74 ± 0.12 |
|  |  | CC(C)O [propan-2-ol] + OCCOCCOCCO | 1.45 ± 0.1 | 1.4 ± 0.09 | 1.38 ± 0.09 |
|  |  | Cc1ccccc1 [toluene] + OCCOCCO | 11.2 ± 0.77 | 10.9 ± 0.75 | 10.5 ± 0.72 |
|  |  | Cc1ccccc1 [toluene] + OCCOCCOCCO | 5.88 ± 0.4 | 5.73 ± 0.39 | 5.55 ± 0.38 |
| 1.4563 ± 0.0004 | 1127.37 ± 0.15 | OCCOCCOCCO [triethylene glycol] |  |  |  |
